Here are results for one compound from US20240277749A1, “NEW FORMULATIONS COMPRISING AZACITIDINE” (NANEXA AB, priority 2021, published 2024).

Structures are written as SMILES.

One series can be described thus: clinical. Conditions: human, plasma, sc, 100 mg/m2.
The conditions of series [1]: standard of care over seven consecutive days by injection or infusions, cited from earlier work.

One may read the AUC(0-inf) as total exposure, with the tail of the curve extrapolated. Lower therefore signals low exposure. As a reminder, the Cmax is the maximum level reached in the sampled fluid or tissue. As a reminder, the Tmax is the time from dosing to the highest level. By half-life is commonly meant the time needed for the level to fall by half in the phase considered. Read a low half-life as fast loss. Turning to `Nc1ncn([C@@H]2O[C@H](CO)[C@@H](O)[C@H]2O)c(=O)n1` [azacitidine, 4-amino-1-®-D-ribofuranosyl-s-triazin-2(1H)-one], in “clinical”, the AUC(0-inf) came out at 1120 ng·h/mL, the Cmax is 562 ng/mL, the time to peak (Tmax) came out at 0.433 h and the half-life was 6.82 h. Also, the “average AUC∞” value in series [1] (525 mg/m^2 of BSA) is 960 ± 458 ng·h/mL. Also, the “average Cmax” value in series [1] was 750 ± 403 ng/mL.
